# In US20170105999A1, “METHOD FOR TREATING DRUG RESISTANT CANCER” (NATIONAL YANG MING UNIVERSITY, priority 2014, published 2017):
# Tests used:
# CL141 = experiment: Clonogenic assay; format: cell-based; conditions: CL141, adenocarcinoma
# From the text: […] […] After the treatments, cells were washed with PBS, and the colonies were fixed with fix solution (methanol: acetic acid=3:1) and stained with 0.5% crystal violet in methanol. After removing the crystal violet carefully and rinse with tap water, the colonies were counted manually.
# PANC-1 = experiment: Tumor spheroid (sphere formation) assay; format: cell-based; conditions: PANC-1, pancreatic cancer
# H441 [1] = experiment: Side population analysis by flow cytometry (Hoechst 33342); format: cell-based, human; conditions: H441, adenocarcinoma
# Experimental: Single-cell suspensions of cells were detached from dishes with Trypsin-EDTA (Invitrogen) and suspended at 1×10^6 cells/mL in Hank's balanced salt solution ([…]) supplemented with 3% fetal calf serum and 10 mM Hepes. These cells were then incubated at 37° C. for 90 minutes with 20 μg/mL Hoechst 33342 (Sigma Chemical, St. Louis, Mo.). […] After 90 minutes incubation with indicated drugs, the cells were centrifuged immediately for 5 minutes at 300 g and 4° C. and resuspended in ice-cold HBSS, The cells were kept on ice to inhibit efflux of the Hoechst dye, and 1 μg/mL propidium iodide (PI, BD) were added to discriminate dead cells. Finally, these cells were filtered through a 40 μm cell strainer (BD) to obtain single-suspension cells. Cell dual-wavelength analysis and purification were performed on a dual-laser FACS Vantage SE (BD). Hoechst 33342 can be excited at 355 nm UV light and emitted blue fluorescence with a 450/20 band-pass (BP) filter and red fluorescence with a 675 nm edge filter long-pass (EFLP). […]
# A549, A549-ON, CL97, CL141, HCC827, and H441 were lung adenocarcinoma cell lines. […] Cell viability was determined by SRB assay. […] To determine whether side population (SP) cells, which represent a cell population with CSC characteristics, exist in NSCLC cell lines, we stained the cells with the fluorescent dye, Hoechst 33342, and analyzed the cells with flow cytometry.
# H441 [2] = experiment: Aldefluor assay (ALDH-positive cell population); format: cell-based, human; conditions: H441, adenocarcinoma
# Experimental: Briefly, single cells obtained from cell cultures were incubated in an Aldefluor assay buffer containing an ALDH substrate (bodipy-aminoacetaldehyde, BAAA) for 50 minutes at 37° C.
# CL152 spheres = experiment: Cytotoxicity at sphere cells, Trypan Blue Exclusion method; format: cell-based; conditions: read-out: IC50 for prochlorperazine metabolites
# NCI-H441 = experiment: Subcutaneous NCI-H441 tumor in NOD/SCID mice; format: in vivo; conditions: 5 mg/kg, 5 days/week, i.p.; four weeks post treatment; vs vehicle, p<0.01
# Experimental: In the first trial, human lung cancer cell line NCI-H441 (purchased from ATCC, 1 million cells/injection) cells were subcutaneously injected into the right flank of NOD/SCID mice (female, 4-6 weeks old). […] Over the period of 4 weeks, tumorigenesis in both groups was measured using a caliper on a weekly basis. The change in tumor size was expressed as in fold change and plotted over time.
# In the first trial (FIG. 3A), NCI-H441 (1×10^6 cells/injection) cells were subcutaneously injected into the right flank of NOD/SCID mice (female, 4-6 weeks old).
# [3] = test system: NCI-H441 cells expressing firefly luciferase; experiment: NCI-H441 firefly luciferase tail vein tumor model, drug combination test; format: in vivo, mice; conditions: prochlorperazine 1 mg/kg + pemetrexed 1 mg/kg; p<0.05
# Experimental: In the first drug combination test, NCI-H441 cells expressing firefly luciferase (6×10^5 cells/injection) were injected into NOD/SCID mice (4-6 week of age) via the lateral tail vein for tumor establishment. […] Tumor burden from different groups were recorded by caliper. The change in tumor size was expressed as in fold change and plotted over time. Subsequently, we performed another set of drug combination test. […] For lung adenocarcinoma, the standard drug combination is pemetrexed and cisplatin whereas are used gemcitabine and cisplatin for lung squamous carcinoma. […] CL97 cancer cells (1.5×10^6 cells per injection) were injected subcutaneously into NOD/SCID mice to establish in viva tumor model.
# In the drug combination test ([…]), NCI-H441 cells expressing firefly luciferase ([…] cells/injection) were injected into NOD/SCID mice (4-6 week of age) via the lateral tail vein for tumor establishment.
# CL97 = CL97 (adenocarcinoma) tumor-bearing NOD/SCID mice, standard regimen combination; format: in vivo
# CL152 = experiment: Tumor spheroid (sphere formation) assay
# Experimental: (§1) In brief, single cells were plated in 6-well ultralow attachment plates (Coming Inc.) at a density of 2,000 cells/mL in tumor spheroid culture medium, DMEM/F12 supplemented with 1% N2 Supplement (Invitrogen), 10 ng/mL basic fibroblast growth factor (Sigma-Aldrich), 10 ng/mL epidermal growth factor (Invitrogen) with 1% penicillin/streptomycin (Invitrogen) at 37° C. in a humidified atmosphere of 95% air and 5% CO2. Cells were cultured twice per week. When passaged, tumor spheres were harvested. Spheroids were dissociated with TrypLE™ (Invitrogen). Spheroids cell counting using the Trypan Blue Exclusion method.
# H1299 = experiment: Tumor spheroid (sphere formation) assay
# Experimental: as §1
smiles,measurement,setting,value
CN1CCN(CCCN2c3ccccc3Sc3ccc(Cl)cc32)CC1 [prochlorperazine],Clonogenic assay,CL141,5 to 10 µM
same,Sphere formation,PANC-1,10 to 20 µM
same,Side population,H441 [1],<5 µM
same,ALDH^+ assay,H441 [2],<10 µM
same,IC50,CL152 spheres,< 5 µM
same,tumor growth,NCI-H441,effective in suppressing tumor growth
same,"tumor inhibitory effect, combination with pemetrexed",[3],significantly better tumor inhibitory effect than any other groups
same,"tumor growth, prochlorperazine alone",CL97; 5 mg/kg,could inhibit tumor growth
same,"tumor growth, standard treatment combined with prochlorperazine",CL97; 50 mg/kg pemetrexed + 3 mg/kg cisplatin + 5 mg/kg prochlorperazine,more significantly inhibitory effect of tumor growth than other treatments
same,Sphere formation,"CL152; CL152, squamous cell carcinoma",0 to 5 µM
same,"combination effect with gemcitabine, sphere-formation assay","CL152; CL152 spheres, in combination with gemcitabine",synergistic effect
same,sphere-forming ability,H1299; H1299,suppressed the sphere-forming ability
same,Sphere formation,"H1299; H1299, large cell carcinoma",0 to 5 µM
same,"spheres number, combination with cisplatin","H1299; H1299, combination with cisplatin vs prochlorperazine or cisplatin alone",lower spheres number
